Source: ChEMBL document CHEMBL3882724 (2013)

Experiments:
[1] = molecular target: T1, Steroid 17-alpha-hydroxylase/17,20 lyase (Homo sapiens, UniProt P05093); experiment: Inhibition of CYP17 in human testicular microsomes using 17alpha-hydroxypregnenolone as substrate assessed as decrease in DHEA levels after 90 mins by ELISA; design: species or system Testis
T1 sequence (P05093 whole entry): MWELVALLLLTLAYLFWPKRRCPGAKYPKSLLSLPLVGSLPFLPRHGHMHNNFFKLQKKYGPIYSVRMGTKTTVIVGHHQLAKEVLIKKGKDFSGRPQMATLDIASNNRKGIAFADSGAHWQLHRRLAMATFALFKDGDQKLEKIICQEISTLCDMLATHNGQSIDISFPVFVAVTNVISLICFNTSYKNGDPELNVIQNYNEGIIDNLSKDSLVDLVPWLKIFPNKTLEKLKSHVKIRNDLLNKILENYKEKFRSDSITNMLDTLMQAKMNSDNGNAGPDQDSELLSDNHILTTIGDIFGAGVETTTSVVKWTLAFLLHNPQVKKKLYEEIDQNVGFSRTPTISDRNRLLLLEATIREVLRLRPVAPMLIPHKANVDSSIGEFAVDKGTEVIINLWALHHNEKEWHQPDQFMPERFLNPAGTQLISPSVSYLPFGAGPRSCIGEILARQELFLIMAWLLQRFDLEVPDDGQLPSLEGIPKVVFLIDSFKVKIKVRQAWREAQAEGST

CYP11B = molecular target: T2, CYP11B (Rattus norvegicus, UniProt P15393+P30099); experiment: Inhibition of Sprague-Dawley rat adrenal mitochondrial CYP11B assessed as decrease in conversion of 11-deoxycortisol to cortisol at 100 nM incubated for 60 mins by ELISA relative to control; type: protein assay; conditions: adrenal mitochondria, probe 11-deoxycortisol
T2 sequence (P30099 whole entry): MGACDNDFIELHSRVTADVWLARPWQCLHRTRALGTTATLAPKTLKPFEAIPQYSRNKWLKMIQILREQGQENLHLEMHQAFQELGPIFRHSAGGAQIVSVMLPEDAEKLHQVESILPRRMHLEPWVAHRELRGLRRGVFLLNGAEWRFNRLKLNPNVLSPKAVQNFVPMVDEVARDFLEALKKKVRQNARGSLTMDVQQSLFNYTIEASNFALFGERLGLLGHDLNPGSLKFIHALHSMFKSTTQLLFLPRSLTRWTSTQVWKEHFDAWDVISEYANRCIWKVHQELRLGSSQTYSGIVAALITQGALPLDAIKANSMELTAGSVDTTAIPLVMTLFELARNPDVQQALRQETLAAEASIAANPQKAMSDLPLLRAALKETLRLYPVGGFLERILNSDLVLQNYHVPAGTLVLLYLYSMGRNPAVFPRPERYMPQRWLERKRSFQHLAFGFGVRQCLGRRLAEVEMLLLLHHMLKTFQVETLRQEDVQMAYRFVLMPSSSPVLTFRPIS
T2 sequence (P15393 whole entry): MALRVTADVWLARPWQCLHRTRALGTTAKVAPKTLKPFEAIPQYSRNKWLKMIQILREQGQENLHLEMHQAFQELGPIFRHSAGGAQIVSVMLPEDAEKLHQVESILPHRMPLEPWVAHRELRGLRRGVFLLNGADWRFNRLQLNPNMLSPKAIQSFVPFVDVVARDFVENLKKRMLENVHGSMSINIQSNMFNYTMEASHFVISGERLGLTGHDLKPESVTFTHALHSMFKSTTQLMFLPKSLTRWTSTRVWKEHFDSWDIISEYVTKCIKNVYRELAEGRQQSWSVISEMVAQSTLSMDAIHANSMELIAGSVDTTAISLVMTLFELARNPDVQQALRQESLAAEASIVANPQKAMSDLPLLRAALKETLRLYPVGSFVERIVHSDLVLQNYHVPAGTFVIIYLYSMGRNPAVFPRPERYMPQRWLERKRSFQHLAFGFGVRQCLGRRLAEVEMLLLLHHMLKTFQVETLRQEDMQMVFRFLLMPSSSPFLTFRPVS

[2] = molecular target: T3, CYP21 (steroid 21-hydroxylase) (Homo sapiens, UniProt P08686); experiment: Inhibition of human CYP21 transfected in HEK293 cells assessed as decrease in conversion of progesterone to 11-deoxycorticosterone preincubated for 5 hrs followed by progesterone addition measured after 20 hrs by ELISA; type: cell-based; design: concentration or dose not given beside the values; conditions: HEK293 cells transfected with human CYP21, probe progesterone
T3 sequence (P08686 whole entry): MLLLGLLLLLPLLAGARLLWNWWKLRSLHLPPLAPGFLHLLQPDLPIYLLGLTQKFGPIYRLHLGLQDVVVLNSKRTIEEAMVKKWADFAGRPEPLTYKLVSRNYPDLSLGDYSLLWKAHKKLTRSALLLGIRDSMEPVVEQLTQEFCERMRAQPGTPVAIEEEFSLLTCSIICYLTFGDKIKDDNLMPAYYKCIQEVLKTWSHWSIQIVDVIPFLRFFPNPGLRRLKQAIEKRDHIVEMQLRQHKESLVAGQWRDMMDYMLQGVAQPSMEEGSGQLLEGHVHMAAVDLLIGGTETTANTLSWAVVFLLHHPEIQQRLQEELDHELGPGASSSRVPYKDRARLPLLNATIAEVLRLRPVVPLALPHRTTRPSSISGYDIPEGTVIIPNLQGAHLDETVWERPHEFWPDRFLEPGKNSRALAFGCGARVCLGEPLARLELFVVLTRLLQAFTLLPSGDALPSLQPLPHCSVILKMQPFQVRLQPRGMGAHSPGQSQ

[3] = molecular target: T1, Steroid 17-alpha-hydroxylase/17,20 lyase; experiment: Inhibition of CYP17 in human testicular microsomes using 17alpha-hydroxypregnenolone as substrate assessed as decrease in DHEA levels at 10 nM after 90 mins by ELISA relative to control; design: species or system Testis; conditions: 1.5 h
[4] = Half life in rat liver microsomes at 1 uM by LC-MS/MS analysis
[5] = Half life in human liver microsomes at 1 uM by LC-MS/MS analysis
[6] = molecular target: T3, CYP21 (steroid 21-hydroxylase); experiment: Inhibition of human CYP21 transfected in HEK293 cells assessed as decrease in conversion of progesterone to 11-deoxycorticosterone at 100 nM preincubated for 5 hrs followed by progesterone addition measured after 20 hrs by ELISA relative to control; type: cell-based; conditions: HEK293 cells transfected with human CYP21, probe progesterone
[7] = molecular target: T1, Steroid 17-alpha-hydroxylase/17,20 lyase; experiment: Inhibition of CYP17 in human H295R cells assessed as decrease in testosterone levels after 24 hrs by ELISA; type: cell-based
[8] = molecular target: T1, Steroid 17-alpha-hydroxylase/17,20 lyase; experiment: Inhibition of CYP17 in human testicular microsomes using 17alpha-hydroxypregnenolone as substrate assessed as decrease in DHEA levels at 1 nM after 90 mins by ELISA relative to control; design: species or system Testis

| IC50 [1] | inhibition at 1 h, 0.1 µM (CYP11B) | inhibition at 20 h [2] | inhibition at 0.01 µM [3] | half-life at 1 µM [4] | half-life at 1 µM [5] | inhibition at 20 h, 0.1 µM [6] | IC50 [7] | IC50 [8] | SMILES |
| --- | --- | --- | --- | --- | --- | --- | --- | --- | --- |
| – | ≥ 50% | – | 1 to 50% | – | – | – | – | – | CC(=O)O[C@H]1CC[C@@]2(C)C(=CC[C@H]3C4=CC=C(c5cccnc5)[C@@]4(C)CC[C@@H]32)C1 |
| – | ≥ 50% | – | 50 to 80% | – | – | – | – | – | CN1C(=O)CC[C@@]2(C)C1=CC[C@@H]1[C@@H]2CC[C@]2(C)C(n3ccnc3)=CC[C@@H]12 |
| ≤ 0.011 µM | ≥ 50% | ≥ 50% | – | – | – | – | – | – | CN1C(=O)C[C@@]2(C)C1=CC[C@@H]1[C@@H]2CC[C@]2(C)C(c3cccnc3)=CC[C@@H]12 |
| ≤ 0.011 µM | < 32% | – | 50 to 80% | 1 to 10 min | 1 to 10 min | – | – | – | COc1cncc(C2=CC[C@H]3[C@@H]4CCC5=CC(=O)N(C)CC[C@]5(C)[C@H]4CC[C@]23C)c1 |
| ≤ 0.011 µM | < 32% | ≥ 50% | – | – | 1 to 50 min | – | – | – | COc1cncc(C2=CC[C@H]3[C@@H]4CC=C5N(C)C(=O)C[C@]5(C)[C@H]4CC[C@]23C)c1 |
| – | ≥ 50% | 10 to 50% | – | – | – | – | – | – | C[C@]12CC[C@H](O)CC1=CC[C@@H]1[C@@H]2CC[C@]2(C)C(n3cncc3C#N)=CC[C@@H]12 |
| ≤ 0.011 µM | – | – | 50 to 80% | – | – | ≥ 30% | – | – | COc1cncc(C2=CC=C3[C@@H]4CCC5=CC(=O)NCC[C@]5(C)[C@H]4CC[C@]23C)c1 |
| ≤ 0.011 µM | ≥ 50% | 10 to 50% | – | – | – | – | – | – | CCC(=O)N1CCC[C@@]2(C)C(CC[C@@H]3[C@@H]2CC[C@]2(C)C(c4cccnc4)=CC[C@@H]32)C1 (stereo partly specified) |
| ≤ 0.011 µM | < 32% | 10 to 50% | – | – | – | – | – | – | CCC(=O)N1CCC2CC[C@@H]3[C@H](CC[C@]4(C)C(c5cccnc5)=CC[C@@H]34)[C@@]2(C)CC1 (stereo partly specified) |
| – | < 32% | 10 to 50% | – | – | – | – | ≤ 0.015 µM | – | Cc1ccncc1C1=CC[C@H]2[C@@H]3CC[C@H]4CC(=O)NCC[C@]4(C)[C@H]3CC[C@]12C |
| ≤ 0.011 µM | < 32% | ≥ 50% | – | – | – | – | – | – | CCCC(=O)N1CCC2CC[C@@H]3[C@H](CC[C@]4(C)C(n5ccnc5)=CC[C@@H]34)[C@@]2(C)CC1 (stereo partly specified) |
| – | ≥ 50% | 10 to 50% | – | – | – | – | – | > 0.1 µM | COC(=O)N1CCC[C@@]2(C)[C@@H](CC[C@@H]3[C@@H]2CC[C@]2(C)C(n4ccnc4)=CC[C@@H]32)C1 |
| – | ≥ 50% | – | ≥ 80% | – | 1 to 50 min | – | – | – | COc1cncc(C2=CC[C@H]3[C@@H]4CC=C5N(C)C(=O)CCC[C@]5(C)[C@H]4CC[C@]23C)c1 |
| – | – | – | 50 to 80% | – | – | ≥ 30% | – | – | CCc1cncc(C2=CC[C@H]3[C@@H]4CCC5=CC(=O)N(C)CC[C@]5(C)[C@H]4CC[C@]23C)c1 |
| ≤ 0.011 µM | ≥ 50% | – | ≥ 80% | 10 to 60 min | 1 to 50 min | – | – | – | CN1CC[C@@]2(C)C(=CC1=O)CC[C@@H]1[C@@H]2CC[C@]2(C)C(n3ccnc3)=CC[C@@H]12 |
| ≤ 0.011 µM | ≥ 50% | – | ≥ 80% | – | 1 to 50 min | – | – | – | CN1C(=O)CCC[C@@]2(C)C1=CC[C@@H]1[C@@H]2CC[C@]2(C)C(c3cccnc3)=CC[C@@H]12 |
| – | ≥ 50% | – | 50 to 80% | – | – | – | – | – | Cc1cncc(C2=CC[C@H]3[C@@H]4CC=C5N(C)C(=O)CCC[C@]5(C)[C@H]4CC[C@]23C)c1 |
| – | – | – | 50 to 80% | – | – | < 30% | – | – | Cc1cncc(C2=CC=C3[C@@H]4CCC5=CC(=O)N(C)CC[C@]5(C)[C@H]4CC[C@]23C)c1 |
| – | < 32% | – | 1 to 50% | – | – | – | – | – | CN1CC=C2CC[C@@H]3[C@H](CC[C@]4(C)C(n5ccnc5)=CC[C@@H]34)[C@@]2(C)CC1 |
| ≤ 0.011 µM | < 32% | – | ≥ 80% | 10 to 60 min | 10 to 60 min | – | – | – | COc1cncc(C2CC[C@H]3[C@@H]4CCC5=CC(=O)NCC[C@]5(C)[C@H]4CC[C@]23C)c1 (stereo partly specified) |
| – | ≥ 50% | 10 to 50% | – | – | – | – | ≤ 0.015 µM | – | Cc1ccncc1C1=CCC2[C@@H]3CN(C)C4=CC(=O)CC[C@]4(C)[C@H]3CC[C@]12C (single isomer, unassigned) |
| ≤ 0.011 µM | < 32% | ≥ 50% | ≥ 80% | – | 1 to 50 min | – | ≤ 0.015 µM | – | C[C@]12CC[C@H](O)CC1=CC[C@@H]1[C@@H]2CC[C@]2(C)C(c3cccnc3)=CC[C@@H]12 [ABIRATERONE] |

| SMILES | IC50 [1] | inhibition at 1 h, 0.1 µM (CYP11B) | inhibition at 20 h [2] | inhibition at 0.01 µM [3] | half-life at 1 µM [4] | half-life at 1 µM [5] | inhibition at 20 h, 0.1 µM [6] | IC50 [7] | IC50 [8] |
| --- | --- | --- | --- | --- | --- | --- | --- | --- | --- |
| COC(=O)N[C@@H]1CC[C@@]2(C)C(=CC[C@@H]3[C@@H]2CC[C@]2(C)C(n4ccnc4)=CC[C@@H]32)C1 | ≤ 0.011 µM | < 32% | ≥ 50% | – | – | – | – | – | – |
| C[C@]12CCCCC1C(=O)C[C@@H]1[C@@H]2CC[C@]2(C)C(n3ccnc3)=CC[C@@H]12 (stereo partly specified) | ≤ 0.011 µM | < 32% | – | ≥ 80% | – | – | – | – | – |
| C[C@]12CC[C@@H](NC(=O)C3CC3)CC1=CC[C@@H]1[C@@H]2CC[C@]2(C)C(n3ccnc3)=CC[C@@H]12 | ≤ 0.011 µM | ≥ 50% | ≥ 50% | – | – | 1 to 50 min | – | – | – |
| CC(=O)N[C@@H]1CC[C@@]2(C)C(=CC[C@@H]3[C@@H]2CC[C@]2(C)C(n4ccnc4)=CC[C@@H]32)C1 | ≤ 0.011 µM | ≥ 50% | ≥ 50% | – | – | ≥ 50 min | – | ≤ 0.015 µM | – |
| C[C@]12CC[C@H]3[C@@H](CCC4=C/C(=N/O)CC[C@@]43C)C1=CC=C2c1cccnc1 | ≤ 0.011 µM | – | ≥ 50% | – | – | 1 to 50 min | < 30% | – | – |
| CC1C[C@H]2C3=CC=C(c4cncc(N)c4)[C@@]3(C)CC[C@@H]2[C@@]2(C)CCC(=O)C=C12 (stereo partly specified) | ≤ 0.011 µM | – | – | – | – | – | < 30% | – | – |
